Key:
human recombinant HDAC1 = biological target: T1, human recombinant HDAC1 (Homo sapiens, UniProt Q13547); assay: In vitro HDAC enzyme activity inhibition assay, HDAC1 (HDAC Fluorimetric Drug Discovery Kit); format: biochemical; conditions: human recombinant HDAC1, Fluor de Lys-SIRT1 substrate 10 μM, 30° C. for 60 minutes
T1 construct: purchased Enzo Life Sciences, Inc. BML-SE456
How it was run: (§1)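 Fluorimetric deacetylase kit; 0.3 μg human recombinant enzyme with 10 μM Fluor de Lys-SIRT1 substrate, 60 min at 30° C, then developer 30 min. Fluorescence read at Ex 360/Em 460; IC50 from 5-fold compound dilutions. HDAC1 and HDAC6 run by the same protocol.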

human recombinant HDAC6 = biological target: T2, human recombinant HDAC6 (Homo sapiens, UniProt Q9UBN7); assay: In vitro HDAC enzyme activity inhibition assay, HDAC6 (HDAC Fluorimetric Drug Discovery Kit); format: biochemical; conditions: for HDAC6 Selectivity (fold): HDAC6 versus HDAC1; for IC50: human recombinant HDAC6, same protocol as the HDAC1 test
T2 construct: purchased Calbiochem Inc. 382180
T2 sequence (Q9UBN7 1-1215): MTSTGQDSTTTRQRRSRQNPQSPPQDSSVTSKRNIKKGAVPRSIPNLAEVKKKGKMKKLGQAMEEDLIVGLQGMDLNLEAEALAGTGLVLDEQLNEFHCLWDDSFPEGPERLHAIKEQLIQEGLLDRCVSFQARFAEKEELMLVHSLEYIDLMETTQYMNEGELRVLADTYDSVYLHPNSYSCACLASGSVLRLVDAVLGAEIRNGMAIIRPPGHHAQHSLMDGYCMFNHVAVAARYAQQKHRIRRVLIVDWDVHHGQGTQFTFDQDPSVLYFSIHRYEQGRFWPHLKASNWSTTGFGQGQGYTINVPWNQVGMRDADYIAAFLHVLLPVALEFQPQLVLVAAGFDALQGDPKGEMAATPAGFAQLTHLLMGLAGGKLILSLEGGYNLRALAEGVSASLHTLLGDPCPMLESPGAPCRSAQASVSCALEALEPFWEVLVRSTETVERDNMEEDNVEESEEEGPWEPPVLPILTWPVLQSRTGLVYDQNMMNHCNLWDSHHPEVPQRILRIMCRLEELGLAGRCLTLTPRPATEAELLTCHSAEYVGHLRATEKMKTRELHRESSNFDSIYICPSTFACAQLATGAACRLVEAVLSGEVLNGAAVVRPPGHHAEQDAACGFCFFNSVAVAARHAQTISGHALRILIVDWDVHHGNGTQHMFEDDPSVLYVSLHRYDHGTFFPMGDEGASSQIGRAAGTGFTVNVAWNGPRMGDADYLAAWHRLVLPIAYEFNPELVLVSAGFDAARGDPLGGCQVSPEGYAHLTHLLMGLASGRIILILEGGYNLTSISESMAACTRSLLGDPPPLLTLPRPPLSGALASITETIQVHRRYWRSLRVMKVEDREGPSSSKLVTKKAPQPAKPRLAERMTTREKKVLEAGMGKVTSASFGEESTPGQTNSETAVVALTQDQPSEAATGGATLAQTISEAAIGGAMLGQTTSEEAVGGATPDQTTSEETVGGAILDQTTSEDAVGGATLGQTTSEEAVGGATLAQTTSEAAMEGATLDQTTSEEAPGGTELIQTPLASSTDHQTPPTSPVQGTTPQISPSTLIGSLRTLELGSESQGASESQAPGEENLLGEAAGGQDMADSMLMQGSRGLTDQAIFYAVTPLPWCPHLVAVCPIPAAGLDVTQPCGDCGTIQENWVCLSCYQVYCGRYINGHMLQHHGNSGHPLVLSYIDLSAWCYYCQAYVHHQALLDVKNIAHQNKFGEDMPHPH
How it was run: as §1

T1 sequence (Q13547 whole entry): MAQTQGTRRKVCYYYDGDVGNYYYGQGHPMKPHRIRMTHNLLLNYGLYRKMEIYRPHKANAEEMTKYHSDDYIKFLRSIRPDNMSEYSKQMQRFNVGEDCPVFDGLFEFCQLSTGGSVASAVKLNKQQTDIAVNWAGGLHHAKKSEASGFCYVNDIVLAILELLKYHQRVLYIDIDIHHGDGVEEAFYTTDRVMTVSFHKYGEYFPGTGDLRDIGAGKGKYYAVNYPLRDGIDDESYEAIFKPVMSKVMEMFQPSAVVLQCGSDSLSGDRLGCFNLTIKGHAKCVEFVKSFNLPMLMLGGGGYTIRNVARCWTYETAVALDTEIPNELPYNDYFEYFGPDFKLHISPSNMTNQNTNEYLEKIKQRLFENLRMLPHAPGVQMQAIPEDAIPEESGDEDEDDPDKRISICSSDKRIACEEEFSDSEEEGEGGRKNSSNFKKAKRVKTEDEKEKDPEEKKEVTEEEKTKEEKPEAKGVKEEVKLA

| IC50 (human recombinant HDAC1) [nM] | HDAC6 Selectivity (fold) (human recombinant HDAC6) | IC50 (human recombinant HDAC6) [nM] | SMILES |
| --- | --- | --- | --- |
| > 50000 | 61 | 815 | O=C(CO)N1CC(C(=O)N(Cc2cn3ccc(-c4nnc(C(F)F)o4)cc3n2)c2ccccc2)C1 [Compound 4169, N-((7-(5-(difluoromethyl)-1,3,4-oxadiazol-2-yl)imidazo[1,2-a]pyridin-2-yl)methyl)-1-(2-hydroxyacetyl)-N-phenylazetidine-3-carboxamide] |
| > 50000 | 199 | 251 | O=C(C1CN(c2ccccn2)C1)N(Cc1cn2ccc(-c3nnc(C(F)F)o3)cc2n1)c1ccccc1 [Compound 4176, N-((7-(5-(difluoromethyl)-1,3,4-oxadiazol-2-yl)imidazo[1,2-a]pyridin-2-yl)methyl)-N-phenyl-1-(pyridin-2-yl) azetidine-3-carboxamide] |
| > 50000 | 112 | 447 | CN1CC(C(=O)N(Cc2cn3ccc(-c4nnc(C(F)F)o4)cc3n2)c2ccccc2)C1 [Compound 4158, N-((7-(5-(difluoromethyl)-1,3,4-oxadiazol-2-yl)imidazo[1,2-a]pyridin-2-yl)methyl)-1-methyl-N-phenylazetidine-3-carboxamide] |
| > 50000 | 112 | 447 | CC(=O)N1CC(C(=O)N(Cc2cn3ccc(-c4nnc(C(F)F)o4)cc3n2)c2ccccc2)C1 [Compound 4167, 1-acetyl-N-((7-(5-(difluoromethyl)-1,3,4-oxadiazol-2-yl)imidazo[1,2-a]pyridine-2-yl)methyl)-N-phenylazetidine-3-carboxamide] |

Further lines, the molecule ahead of its results:

| SMILES | IC50 (human recombinant HDAC1) [nM] | HDAC6 Selectivity (fold) (human recombinant HDAC6) | IC50 (human recombinant HDAC6) [nM] |
| --- | --- | --- | --- |
| O=C(C1CCN(C2CCC2)CC1)N(Cc1cn2ccc(-c3nnc(C(F)F)o3)cc2n1)c1cccc(F)c1 [Compound 4141, 1-cyclobutyl-N-((7-(5-(difluoromethyl)-1,3,4-oxadiazol-2-yl)imidazo[1,2-a]pyridin-2-yl)methyl)-N-(3-fluorophenyl)piperidine-4-carboxamide] | > 50000 | 204 | 245 |
| O=C(N1CCN(C2CCOCC2)CC1)N(Cc1cn2ccc(-c3nnc(C(F)F)o3)cc2n1)c1ccccc1 [Compound 4038, N-((7-(5-(difluoromethyl)-1,3,4-oxadiazol-2-yl)imidazo[1,2-a]pyridin-2-yl)methyl)-N-phenyl-4-(tetrahydro-2H-pyran-4-yl)piperazine-1-carboxamide] | > 50000 | 382 | 131 |
| O=C(C1COC1)N1CCN(C(=O)N(Cc2cn3ccc(-c4nnc(C(F)F)o4)cc3n2)c2ccccc2)CC1 [Compound 4102, N-((7-(5-(difluoromethyl)-1,3,4-oxadiazol-2-yl)imidazo[1,2-a]pyridin-2-yl)methyl)-4-(oxetan-3-carbonyl)-N-phenylpiperazine-1-carboxamide] | > 50000 | 164 | 305 |
| O=C(N1CCN(c2ccccn2)CC1)N(Cc1cn2ccc(-c3nnc(C(F)F)o3)cc2n1)c1ccccc1 [Compound 4048, N-((7-(5-(difluoromethyl)-1,3,4-oxadiazol-2-yl)imidazo[1,2-a]pyridin-2-yl)methyl)-N-phenyl-4-(pyridin-2-yl)piperazine-1-carboxamide] | > 50000 | 203 | 247 |
| O=C(CO)N1CC(C(=O)N(Cc2cn3ccc(-c4nnc(C(F)F)o4)cc3n2)c2cccc(F)c2)C1 [Compound 4199, N-((7-(5-(difluoromethyl)-1,3,4-oxadiazol-2-yl)imidazo[1,2-a]pyridin-2-yl)methyl)-N-(3-fluorophenyl)-1-(2-hydroxyacetyl) azetidine-3-carboxamide] | > 50000 | 200 | 250 |
| CC(=O)N1CCC(C(=O)N(Cc2cn3ccc(-c4nnc(C(F)F)o4)cc3n2)c2cccc(F)c2)CC1 [Compound 4146, 1-acetyl-N-((7-(5-(difluoromethyl)-1,3,4-oxadiazol-2-yl)imidazo[1,2-a]pyridin-2-yl)methyl)-N-(3-fluorophenyl)piperidine-4-carboxamide] | > 50000 | 206 | 243 |

Reference: patent US12522601B2, “1,3,4-oxadiazole derivative compounds as histone deacetylase 6 inhibitor, and the pharmaceutical composition comprising the same” (CHONG KUN DANG PHARMACEUTICAL CORP., priority 2020, dated 2026)
